Assays:
Format in all cases: cell-based
[1] = test system: IL-6 in supernatant of NCIH 460 cells; experiment: Measuring IL-6 in culture supernatants (ELISA); conditions: Homo sapiens, NCI-H460, 5 hours incubation
[2] = test system: HCT 116 (colon), NCIH460 (lung) and U251 (glioma) cell lines; experiment: Anti-cancer screen (MTT growth inhibition, 48 hours); conditions: Homo sapiens; HCT 116, NCIH460 and U251 cell lines; MTT after 48 hours of incubation;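 further: mean GI50 across the three cell lines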
Method: The experimental drugs were screened for anti-cancer activity in three cell lines using five concentrations for each compound. The cell lines—HCT 116 (colon), NCIH460 (lung) and U251 (glioma) were maintained in DMEM containing 10% fetal bovine serum. 96-well microtiter plates are inoculated with cells in 100 μL of cell suspension (5×10^4 cells/mL) for 24 hours at 37° C., 5% CO2, 95% air and 100% relative humidity. A separate plate with these cell lines is also inoculated to determine cell viability before the addition of the compounds (T0)
Following 24-hour incubation, test compounds were added to the 96 well plates. Each plate contains one of the above cell lines and the following samples in triplicate: five different dilutions (0.01, 0.1, 1, 10 and 100 μM) of four test compounds, appropriate dilutions of a cytotoxic standard and growth medium (untreated) wells. Test compounds were dissolved in DMSO to prepare 20 mM stock solutions on the day of drug addition and serial dilutions were carried out in complete growth medium at 2× strength, such that 100 μL added to the wells gave final concentrations (0.01, 0.1, 1, 10 and 100 μM) in the well. SAHA was used as the standard drug in these experiments.
For T0 measurement, 24 hours after seeding the cells, 20 μL of 3-(4,5-dimethyl-2-thiazolyl)-2,5-diphenyl-2H-tetrazolium (MTT) solution per well was added to the ‘T0’ plate and incubated for 3 hours at 37° C. in a CO2 incubator. The plate containing cells and test compounds was treated similarly after 48 hours of incubation. After 3 hours of MTT addition, well contents were aspirated carefully followed by addition of 150 μL DMSO per well. Plates were agitated to ensure dissolution of the formazan crystals in DMSO and absorbance was read at 570 nm (A570).
Percent growth (PG) is calculated relative to the control and zero measurement wells (T0) as follows:
PG values are plotted against drug concentration to derive the following: GI50 is the concentration required to decrease PG by 50% vs control; TGI is the concentration required to decrease PG by 100% vs control and LC50 is the concentration required to decrease PG by 50% vs T0. (Mosmann T. Rapid colorimetric assay for cellular growth and survival: application to proliferation and cytotoxicity assays. (J. Immunol. Methods. 1983, 65 (1-2), 55-63; Anne Monks et al); feasibility of high-flux anticancer drug screen using a diverse panel of cultured human tumor cell lines”. (JNCI, Vol. 83, No. 11, 1991). Results for growth inhibition of synthesized compounds are given in Table-1.

[3] = test system: pSTAT3 in HEPG2 (liver cancer) cells induced by IL-6; experiment: Inhibition of pSTAT3 (IL-6 induced phosphorylation of STAT3, Phospho-STAT3 (Tyr705) Sandwich ELISA); conditions: Homo sapiens, 4 hours compound, then IL-6 (10 ng/mL) 30 minutes
Method: The experimental drugs were tested for their effect on phosphorylation of STAT3 in HEPG2 (liver cancer) cells induced by IL-6. Test compounds were dissolved in DMSO at 20 mM and diluted in a growth medium at 2× strength. Final DMSO concentration was less than 0.5%. 100 μL of cell suspension (10×10^4 cells/mL) was added to the wells of 96 well plates and allowed to adhere for 24 hours in a CO2 incubator at 37° C. Following overnight incubation, the culture medium was replaced with 100 μL of fresh growth medium and 100 μL of test compound (s), standard (Curcumin) and growth medium (untreated) wells. The plates were incubated in CO2 incubator at 37° C. for 4 hours. After compound treatment, IL-6 (10 ng/mL) was added to the wells and incubated for 30 minutes to induce pSTAT3.
At the end of the 30 minutes incubation, cells were rinsed with ice-cold PBS and lysed with 1× Cell lysis buffer containing 1 mM PMSF (provided in the kit) on ice for 5 minutes. The cells were scraped off and transferred to an appropriate tube, sonicated on ice and centrifuged for 10 minutes at 4° C. The supernatant (cell lysate) was collected and stored at −80° C. and the levels of pSTAT3 were measured in the cell lysate by Path Scan Phospho-STAT3 (Tyr705) Sandwich ELISA kit (Cell Signaling, Cat No. 7300) by following the kit instructions.

SMILES	inhibition at 10 µM [1]	GI50 [2]	inhibition at 10 µM [3]
COC(=O)/C(=C/c1ccc(OCC(O)CNCc2ccc(OC)cc2OC)cc1)c1ccc(F)cc1 (centres unmarked) [Example 35, 3-{4-[3-(2,4-Dimethoxybenzylamino)-2-hydroxypropoxy]phenyl}-2-(4-fluorophenyl)acrylic acid methyl ester]	72.7%	5.1 µM	32.7%
COC(=O)/C(=C/c1ccc(OCC(O)CNCc2ccc(OC)cc2OC)cc1)c1ccc(C)cc1 (centres unmarked) [Example 37, 3-{4-[3-(2,4-Dimethoxybenzylamino)-2-hydroxypropoxy]phenyl}-2-(4-methylphenyl)acrylic acid methyl ester]	68.1%	6.2 µM	42%
COC(=O)/C(=C/c1ccc(OCC(O)CNCCOc2ccccc2OC)cc1)c1ccc(C)cc1 (centres unmarked) [Example 38, 3-{4-[3-(2-Methoxyphenoxyethylamino)-2-hydroxypropoxy]phenyl}-2-(4-methylphenyl)acrylic acid methyl ester]	69.1%	9 µM	77.2%
COC(=O)/C(=C/c1ccc(OCC(O)CNCc2ccc(OC)cc2OC)cc1)c1cccs1 (centres unmarked) [Example 40, 3-{4-[3-(2,4-Dimethoxybenzylamino)-2-hydroxypropoxy]phenyl}-2-(thiophen-2-yl)acrylic acid methyl ester]	70.5%	9.7 µM	71%
COC(=O)/C(=C/c1ccccc1OCC(O)CNCc1ccccc1)c1ccc(OC)cc1 (centres unmarked) [Example 43, 3-{2-[3-(Benzylamino)-2-hydroxypropoxy]phenyl}-2-(4-methoxyphenyl)acrylic acid methyl ester]	9.6%	0.86 µM	46.4%
COC(=O)/C(=C/c1ccc(OCC(O)CNCc2ccccc2)cc1)c1cccc(Cl)c1 (centres unmarked) [Example 49, 3-{4-[3-(Benzylamino)-2-hydroxypropoxy]phenyl}-2-(3-chlorophenyl)acrylic acid methyl ester]	56%	2.1 µM	58.4%
COc1ccc(CNCC(O)COc2ccc(/C(=C\c3ccc(F)c(F)c3)C(N)=O)cc2)c(OC)c1 (centres unmarked) [Example 64, 2-{4-[3-(2,4-Dimethoxybenzylamino)-2-hydroxypropoxy]phenyl}-3-(3,4-difluorophenyl)acrylamide]			32.2%
COc1ccccc1OCCNCC(O)COc1ccc(/C(=C\c2ccc(F)c(F)c2)C(N)=O)cc1 (centres unmarked) [Example 65, 2-{4-[3-(2-Methoxyphenoxyethylamino)-2-hydroxypropoxy]phenyl}-3-(3,4-difluorophenyl)acrylamide]			0%

Reference: patent publication US20100298402A1, “STILBENE DERIVATIVES AS PSTAT3/IL-6 INHIBITORS” (ORCHID RESEARCH LABORATORIES LIMITED, priority 2007, published 2010)
